Results taken from ChEMBL document CHEMBL6096732 (J Med Chem, 2025).
Values belong to the compound of their own block, whether it stands above or below them. The source made the active and inactive calls. The rule behind the calls is not given here.

Columns and labels:
B16-F10 [1] = assay: cells; assay type: functional, cell-based; details: Mus musculus, B16-F10, 72 h
Description: Antiproliferative activity against mouse B16-F10 cells assessed as inhibition of cell growth incubated for 72 hrs by MTT assay

4T1 [2] = assay: cells; assay type: functional, cell-based; details: Mus musculus, 4T1, 72 h
HCT-116 = assay: cells; assay type: functional, cell-based; details: Homo sapiens, HCT-116, 72 h
Description: Antiproliferative activity against human HCT-116 cells assessed as inhibition of cell growth incubated for 72 hrs by MTT assay

Histone deacetylase 11 = Histone deacetylase 11 (Homo sapiens, UniProt Q96DB2); assay: Inhibition of recombinant HDAC11 (unknown origin) preincubated for 1 hr followed by substrate addition and measured after 2 hrs by fluorescence based micro plate reader analysis
Histone deacetylase 1 = Histone deacetylase 1 (Homo sapiens, UniProt Q13547); details: dose 500.0 nM, time 3.0 hrs
[3] = molecular target: T1, Protein deacetylase HDAC6 (Homo sapiens) (UniProt Q9UBN7); details: dose 500.0 nM, time 3.0 hrs
T1 sequence (whole entry): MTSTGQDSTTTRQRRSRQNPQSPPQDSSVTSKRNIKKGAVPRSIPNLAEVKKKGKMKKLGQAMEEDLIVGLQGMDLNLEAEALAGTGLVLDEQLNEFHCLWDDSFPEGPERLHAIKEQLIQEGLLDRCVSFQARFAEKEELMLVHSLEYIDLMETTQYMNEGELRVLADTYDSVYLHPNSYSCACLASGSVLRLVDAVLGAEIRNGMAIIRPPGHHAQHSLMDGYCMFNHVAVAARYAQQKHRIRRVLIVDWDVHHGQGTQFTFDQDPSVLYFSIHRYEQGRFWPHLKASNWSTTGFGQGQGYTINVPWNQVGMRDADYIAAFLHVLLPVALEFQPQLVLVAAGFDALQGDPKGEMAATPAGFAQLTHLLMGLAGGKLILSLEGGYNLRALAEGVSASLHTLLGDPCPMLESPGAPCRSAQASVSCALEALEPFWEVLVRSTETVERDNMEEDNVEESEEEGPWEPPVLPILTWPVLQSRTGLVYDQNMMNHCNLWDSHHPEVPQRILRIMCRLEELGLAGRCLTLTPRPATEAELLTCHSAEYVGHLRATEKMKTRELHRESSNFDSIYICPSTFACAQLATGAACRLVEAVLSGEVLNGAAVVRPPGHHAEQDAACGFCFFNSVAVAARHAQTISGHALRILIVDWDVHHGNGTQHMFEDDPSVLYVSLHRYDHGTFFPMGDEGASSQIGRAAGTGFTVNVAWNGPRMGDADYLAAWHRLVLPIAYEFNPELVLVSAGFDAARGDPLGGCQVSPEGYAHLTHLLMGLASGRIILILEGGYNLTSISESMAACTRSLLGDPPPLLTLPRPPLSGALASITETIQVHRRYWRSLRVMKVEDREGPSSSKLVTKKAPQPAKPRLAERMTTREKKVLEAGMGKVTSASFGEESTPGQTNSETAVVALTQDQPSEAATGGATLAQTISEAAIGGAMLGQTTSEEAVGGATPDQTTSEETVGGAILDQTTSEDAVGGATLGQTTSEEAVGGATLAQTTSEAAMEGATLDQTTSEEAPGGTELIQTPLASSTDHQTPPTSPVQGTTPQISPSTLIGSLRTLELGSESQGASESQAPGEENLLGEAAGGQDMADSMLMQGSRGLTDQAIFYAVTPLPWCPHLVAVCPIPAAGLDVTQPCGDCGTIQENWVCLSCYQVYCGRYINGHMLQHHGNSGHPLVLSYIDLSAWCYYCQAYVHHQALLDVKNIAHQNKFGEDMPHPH

SK-OV-3 = assay: cells; assay type: functional, cell-based; details: Homo sapiens, SK-OV-3, 72 h
Description: Antiproliferative activity against human SK-OV-3 cells assessed as inhibition of cell growth incubated for 72 hrs by MTT assay

[4] = molecular target: T2, Histone deacetylase 3 (Mus musculus) (UniProt O88895); assay: Inhibition of HDAC3 in mouse B16-F10 cells assessed as increase in histone H3 acetylation level at 5 to 20 uM incubated for 24 hrs by Western blot analysis; assay type: cell-based; details: dose 5-20 µM
T2 sequence (whole entry): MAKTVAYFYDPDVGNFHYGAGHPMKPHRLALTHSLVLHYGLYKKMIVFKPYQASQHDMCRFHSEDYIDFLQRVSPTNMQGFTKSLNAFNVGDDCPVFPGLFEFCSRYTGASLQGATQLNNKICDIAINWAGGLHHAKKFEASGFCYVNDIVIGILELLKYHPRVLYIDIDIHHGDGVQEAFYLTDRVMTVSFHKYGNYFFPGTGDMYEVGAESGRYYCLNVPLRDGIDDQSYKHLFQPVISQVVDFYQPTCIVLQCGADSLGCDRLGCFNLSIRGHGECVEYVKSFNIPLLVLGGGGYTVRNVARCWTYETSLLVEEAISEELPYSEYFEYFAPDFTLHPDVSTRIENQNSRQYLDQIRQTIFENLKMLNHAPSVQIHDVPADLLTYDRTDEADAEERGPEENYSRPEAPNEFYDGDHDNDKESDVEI

[5] = molecular target: T2, Histone deacetylase 3 (Mus musculus); assay: Inhibition of HDAC3 in mouse 4T1 cells assessed as increase in histone H3 acetylation level at 5 to 20 uM incubated for 24 hrs by Western blot analysis; assay type: cell-based; details: dose 5-20 µM
[6] = molecular target: T2, Histone deacetylase 3 (Mus musculus); assay: In vivo inhibition of HDAC3 in male C57BL/6 mouse model implanted with mouse B16-F10 cells assessed as increase in acetylated histone H3 level at 50 mg/kg, po administered once daily via gavage for 14 days by Western blot analysis; assay type: functional, organism-based; details: time 14.0 day
Histone deacetylase 3 = Histone deacetylase 3 (Homo sapiens, UniProt O15379); details: dose 500.0 nM, time 3.0 hrs
Mus musculus [7] = assay: Effect on acetylated alpha-tubulin level in male C57BL/6 mouse tumor implanted with mouse B16-F10 cells at 50 mg/kg, po administered once daily via gavage for 14 days by Western blot analysis; assay type: functional, organism-based; details: time 14.0 day
[8] = molecular target: T2, Histone deacetylase 3 (Mus musculus); assay: In vivo inhibition of HDAC3 in male C57BL/6 mouse model implanted with mouse B16-F10 cells assessed as increase in acetylated histone H3 level in tumor at 50 mg/kg, po administered once daily via gavage for 14 days by DAPI staining based immunofluorescence analysis; assay type: functional, organism-based; details: time 14.0 day
Mus musculus [9] = assay: Immunomodulatory activity in male C57BL/6 mouse model implanted with mouse B16-F10 cells assessed as increase in CD3+ CD4+ T cells in tumor at 50 mg/kg, po administered once daily for 14 days by flow cytometric analysis (reference value: 3.1 %); assay type: functional; details: time 14 day
Mus musculus [10] = assay: Immunomodulatory activity in male C57BL/6 mouse model implanted with mouse B16-F10 cells assessed as increase in CD3+ CD8+ T cells in tumor at 50 mg/kg, po administered once daily for 14 days by flow cytometric analysis (reference value: 3.2 %); assay type: functional; details: time 14 day
[11] = Retention time of compound by HPLC analysis; assay type: physicochemical
B16-F10 [12] = assay: Induction of DNA damage in mouse B16-F10 cells assessed as increase in gamma-H2AX expression at 2 uM incubated for 24 hrs by Western blot analysis; assay type: functional, cell-based
4T1 [13] = assay: Induction of DNA damage in mouse 4T1 cells assessed as increase in gamma-H2AX expression at 2 uM incubated for 24 hrs by Western blot analysis; assay type: functional, cell-based
[14] = Toxicity in female BALB/c mouse model implanted with mouse 4T1 cells assessed as effect on body weight administrated orally as once daily dose via gavage for 14 days; details: in vivo, po, 336 h, time 14 day
4T1 [15] = assay: Antitumor activity against mouse 4T1 cells implanted in female BALB/c mouse model assessed as induction of DNA damage by measuring increase in gamma-H2AX expression in tumor administrated orally as once daily dose via gavage for 14 days by Western blot analysis; assay type: functional, cell-based; details: route po, time 14.0 day
4T1 [16] = assay: Antitumor activity against mouse 4T1 cells implanted in female BALB/c mouse model assessed as decrease in PAPR1 expression in tumor administrated orally as once daily dose via gavage for 14 days by Western blot analysis; assay type: functional, cell-based; details: route po, time 14.0 day
4T1 [17] = assay: Antitumor activity against mouse 4T1 cells implanted in female BALB/c mouse model assessed as tumor growth inhibition administrated orally as once daily dose via gavage for 14 days relative to control; assay type: functional; details: route po; time 14 day
4T1 [18] = assay: Downregulation of PARP1 expression in mouse 4T1 cells at 2 uM incubated for 24 hrs by Western blot analysis; assay type: functional, cell-based
B16-F10 [19] = assay: Downregulation of PARP1 expression in mouse B16-F10 cells at 2 uM incubated for 24 hrs by Western blot analysis; assay type: functional, cell-based
Mus musculus [20] = assay: Immunomodulatory activity in male C57BL/6 mouse model implanted with mouse B16-F10 cells assessed as increase in CD3+ CD4+ T cells in tumor at 20 mg/kg, po administered once daily for 14 days by flow cytometric analysis (reference value: 3.1 %); assay type: functional; details: time 14 day
B16-F10 [21] = assay: Antitumor activity against mouse B16-F10 cells implanted in male C57BL/6 mouse model assessed as tumor growth inhibition at 20 mg/kg, po administered once daily via gavage for 14 days relative to control; assay type: functional; details: B16-F10, 336 h, time 14 day, read-out: TGI
[22] = molecular target: T2, Histone deacetylase 3 (Mus musculus); assay: In vivo inhibition of HDAC3 in male C57BL/6 mouse model implanted with mouse B16-F10 cells assessed as increase in acetylated histone H3 level in tumor at 20 mg/kg, po administered once daily via gavage for 14 days by DAPI staining based immunofluorescence analysis; assay type: functional, organism-based; details: time 14.0 day
[23] = Oral bioavailability in male C57BL/6 mouse at 20 mg/kg; assay type: ADME, organism-based; details: in vivo
Mus musculus [24] = assay: Immunomodulatory activity in male C57BL/6 mouse model implanted with mouse B16-F10 cells assessed as increase in CD3+ CD8+ T cells in tumor at 20 mg/kg, po administered once daily for 14 days by flow cytometric analysis (reference value: 3.2 %); assay type: functional; details: time 14 day
Mus musculus [25] = assay: In vivo induction of PD-L1 degradation in male C57BL/6 mouse model implanted with mouse B16-F10 cells assessed as decrease in PD-L1 protein expression in tumor at 20 mg/kg, po administered once daily via gavage for 14 days by DAPI staining based immunofluorescence analysis; assay type: functional, organism-based; details: time 14.0 day

Sequence of Histone deacetylase 3 (O15379 whole entry): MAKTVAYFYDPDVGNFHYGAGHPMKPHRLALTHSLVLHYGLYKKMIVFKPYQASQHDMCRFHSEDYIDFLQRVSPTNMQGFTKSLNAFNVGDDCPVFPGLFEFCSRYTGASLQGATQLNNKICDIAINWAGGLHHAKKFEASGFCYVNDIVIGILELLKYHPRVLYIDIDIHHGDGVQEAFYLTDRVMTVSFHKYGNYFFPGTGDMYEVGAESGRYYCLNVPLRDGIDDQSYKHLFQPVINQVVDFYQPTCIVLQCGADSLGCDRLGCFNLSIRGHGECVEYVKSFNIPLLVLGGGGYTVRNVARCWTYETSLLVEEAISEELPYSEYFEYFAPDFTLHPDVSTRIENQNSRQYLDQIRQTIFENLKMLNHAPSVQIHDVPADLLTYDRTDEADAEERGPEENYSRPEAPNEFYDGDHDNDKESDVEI
Sequence of Histone deacetylase 1 (Q13547 whole entry): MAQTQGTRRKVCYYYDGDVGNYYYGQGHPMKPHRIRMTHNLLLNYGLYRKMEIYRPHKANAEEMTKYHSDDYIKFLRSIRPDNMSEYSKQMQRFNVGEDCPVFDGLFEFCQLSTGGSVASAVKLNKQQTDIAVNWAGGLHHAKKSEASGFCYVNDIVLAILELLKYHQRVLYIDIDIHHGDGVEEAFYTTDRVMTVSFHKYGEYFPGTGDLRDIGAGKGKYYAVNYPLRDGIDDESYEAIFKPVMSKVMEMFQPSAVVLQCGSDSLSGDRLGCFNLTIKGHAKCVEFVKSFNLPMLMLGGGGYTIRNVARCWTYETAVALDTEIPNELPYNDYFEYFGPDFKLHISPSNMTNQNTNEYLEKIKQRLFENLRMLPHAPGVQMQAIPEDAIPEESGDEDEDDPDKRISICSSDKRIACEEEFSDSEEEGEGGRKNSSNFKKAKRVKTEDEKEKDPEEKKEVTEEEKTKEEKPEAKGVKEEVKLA
Sequence of Histone deacetylase 11 (Q96DB2 whole entry): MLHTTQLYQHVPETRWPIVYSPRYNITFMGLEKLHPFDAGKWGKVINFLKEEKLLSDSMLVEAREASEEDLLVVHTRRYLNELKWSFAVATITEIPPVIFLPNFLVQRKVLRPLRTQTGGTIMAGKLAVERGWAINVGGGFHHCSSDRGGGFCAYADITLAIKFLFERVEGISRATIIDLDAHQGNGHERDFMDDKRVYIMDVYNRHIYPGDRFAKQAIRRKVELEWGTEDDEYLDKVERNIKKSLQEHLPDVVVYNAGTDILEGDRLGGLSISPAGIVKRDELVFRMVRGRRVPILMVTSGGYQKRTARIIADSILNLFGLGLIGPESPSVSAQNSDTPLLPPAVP

SMILES: O=C(c1cc(Cc2n[nH]c(=O)c3ccccc23)ccc1F)N1CCN(C(=O)C2CC2)CC1 [OLAPARIB]
- Activity (B16-F10 [12]): Active
- Activity (4T1 [13]): Active
- Activity [14]: Non-toxic
- Activity (4T1 [15]): Active
- Activity (4T1 [16]): Active
- TGI (4T1 [17]): 36%
- Activity (4T1 [18]): Active
- Activity (B16-F10 [19]): Active

SMILES: CCCNNC(=O)c1ccc(Cn2c3ccccc3c3c(-c4cccc(Cl)c4)nc4ccccc4c32)cc1
- inhibition (Histone deacetylase 3): 73%
- inhibition (Histone deacetylase 1): 25%
- inhibition [3]: < 10%

SMILES: CCCN(CCC)NC(=O)c1ccc(Cn2c3ccccc3c3c(-c4ccccn4)nc4ccccc4c32)cc1
- inhibition (Histone deacetylase 3): 29%
- inhibition (Histone deacetylase 1): 23%
- inhibition [3]: < 10%

SMILES: CCCNNC(=O)c1ccc(Cn2c3ccccc3c3c(-c4cn(C)c5ccccc45)nc4ccccc4c32)cc1
- inhibition (Histone deacetylase 3): 36%
- inhibition (Histone deacetylase 1): < 10%
- inhibition [3]: < 10%

SMILES: Cc1c(COc2cc(OCc3cccc(C#N)c3)c(CNC(C)(C)C(=O)O)cc2Cl)cccc1-c1ccccc1
- Activity (Mus musculus [20]): 27%
- inhibition in vivo at 20 mg/kg (B16-F10 [21]): 37%
- inhibition [22]: inactive
- bioavailability [23]: < 5%
- Activity (Mus musculus [24]): 27%
- Activity (Mus musculus [25]): Active

Second part, led by results:

- IC50 (B16-F10 [1]): 13.9 µM
- IC50 (4T1 [2]): 6.85 µM
- IC50 (HCT-116): 1.67 µM
- IC50 (Histone deacetylase 11): > 10 µM
- inhibition (Histone deacetylase 1): 88%
- inhibition [3]: 24%
- IC50 (SK-OV-3): > 10 µM
SMILES: Nc1ccccc1NC(=O)c1ccc(CNC(=O)OCc2cccnc2)cc1 [ENTINOSTAT]

- inhibition [4]: Active
- inhibition [5]: Active
- inhibition [6]: Active
- inhibition (Histone deacetylase 3): 77%
- inhibition [8]: Active
SMILES: O=C(CCCCCCC(=O)Nc1ccccc1)NO [VORINOSTAT]
- Activity (Mus musculus [7]): inactive
- Activity (Mus musculus [9]): 17%
- Activity (Mus musculus [10]): 23%

- Retention_time [11]: 14.7 min
SMILES: CC(/C=C/C(=O)NO)=C\[C@@H](C)C(=O)c1ccc(N(C)C)cc1 [TRICHOSTATIN]

- inhibition (Histone deacetylase 3): 38%
- inhibition (Histone deacetylase 1): < 10%
- inhibition [3]: < 10%
SMILES: CCCNNC(=O)c1ccc(Cn2c3ccccc3c3c(-c4ccc(C(=O)NNCCC)cc4)nc4ccccc4c32)cc1
